{
  "source": "patent US10821115B2",
  "about": "“Compounds that inhibit Mcl-1 protein” (priority 2017, dated 2020)",
  "key": {"[1]": {"molecular_target": "recombinant human Mcl-1 (residues 171-327) / Bim interaction (Homo sapiens (Human), UniProt Q07820)", "sequence (Q07820 171-327)": "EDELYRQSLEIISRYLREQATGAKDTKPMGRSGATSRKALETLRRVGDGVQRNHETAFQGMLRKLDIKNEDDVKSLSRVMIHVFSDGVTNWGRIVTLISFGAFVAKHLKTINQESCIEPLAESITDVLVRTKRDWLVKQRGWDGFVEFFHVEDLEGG", "assay": "biochemical", "type": "binding", "conditions": "TR-FRET, Mcl-1(171-327) / biotin-Bim (51-76); read-out: Mcl-1 HTRF IC50"}, "[2]": {"test_system": "human multiple myeloma cell line, OPM-2", "assay": "Cell viability assay (OPM-2 10 FBS), CellTiter-Glo", "type": "cell-based", "outline": "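Cells were seeded at 3000 cells/well in RPMI 1640 with 10% FBS and exposed to serially diluted compounds for 16 h at 37 °C, 5% CO2.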"}, "[3]": {"conditions": "Homo sapiens, OPM-2, 16 h, read-out: OPM-2 10% FBS IC50 IP, OPM-2 cells, 10% FBS, 16 h, CellTiter-Glo"}, "[4]": {"conditions": "read-out: OPM-2 10% FBS IC50 IP, OPM-2 cells, 10% FBS, 16 h, CellTiter-Glo"}},
  "note": "Like-named read-outs stand apart in the source and are kept apart here.",
  "data": [
    {"smiles": "C[C@@H]1[C@@H](C)C/C=C/[C@@](O)(CC(=O)N2CC(F)(F)C2)[C@@H]2CC[C@H]2CN2C[C@@]3(CCCc4cc(Cl)ccc43)COc3ccc(cc32)C(=O)NS1(=O)=O", "note": "[Example 100297, (1S,3′R,6′R,7′S,8′E,11′S,12′R)-6-chloro-7′-(2-(3,3-difluoro-1-azetidinyl)-2-oxoethyl)-7′-hydroxy-11′,12′-dimethyl-3,4-dihydro-2H,15′H-spiro[naphthalene-1,22′-[20]oxa[13]thia[1,14]diazatetracyclo [14.7.2.0~3,6~.0~19,24~]pentacosa[8,16,18,24]tetraen]-15′-one 13′,13′-dioxide]", "values": [
      {"measurement": "IC50", "setting": "[1]", "value": 0.115, "unit": "nM"},
      {"measurement": "IC50", "setting": "[2]; [3]", "value": 168, "unit": "nM"}
    ]},
    {"smiles": "C[C@@H]1[C@@H](C)C/C=C/[C@](O)(CC(=O)OCC2(C)COC2)[C@@H]2CC[C@H]2CN2C[C@@]3(CCCc4cc(Cl)ccc43)COc3ccc(cc32)C(=O)NS1(=O)=O", "note": "[Example 100298, (3-methyl-3-oxetanyl)methyl ((1S,3′R,6′R,7′R,8′E,11′S,12′R)-6-chloro-7′-hydroxy-11′,12′-dimethyl-13′,13′-dioxido-15′-oxo-3,4-dihydro-2H-spiro[naphthalene-1,22′-[20]oxa[13]thia[1,14]diazatetracyclo [14.7.2.0~3,6~.0~19,24~]pentacosa[8,16,18,24]tetraen]-7′-yl)acetate]", "values": [
      {"measurement": "IC50", "setting": "[1]", "value": 0.14, "unit": "nM"},
      {"measurement": "IC50", "setting": "[2]; [3]", "value": 199, "unit": "nM"}
    ]},
    {"smiles": "C[C@@H]1[C@@H](C)C/C=C/[C@@](O)(CC(=O)OCC2(C)COC2)[C@@H]2CC[C@H]2CN2C[C@@]3(CCCc4cc(Cl)ccc43)COc3ccc(cc32)C(=O)NS1(=O)=O", "note": "[Example 100299, (3-methyl-3-oxetanyl)methyl ((1S,3′R,6′R,7′S,8′E,11′S,12′R)-6-chloro-7′-hydroxy-11′,12′-dimethyl-13′,13′-dioxido-15′-oxo-3,4-dihydro-2H-spiro[naphthalene-1,22′-[20]oxa[13]thia[1,14]diazatetracyclo [14.7.2.0~3,6~.0~19,24~]pentacosa[8,16,18,24]tetraen]-7′-yl)acetate]", "values": [
      {"measurement": "IC50", "setting": "[1]", "value": 0.35, "unit": "nM"},
      {"measurement": "IC50", "setting": "[2]; [3]", "value": 623, "unit": "nM"}
    ]},
    {"smiles": "C[C@@H]1[C@@H](C)CCC[C@](C)(CN2CCN3CCOC[C@@H]3C2)[C@@H]2CC[C@H]2CN2C[C@@]3(CCCc4cc(Cl)ccc43)COc3ccc(cc32)C(=O)NS1(=O)=O", "note": "[Example 100300, (1S,3′R,6′R,7′S,11′S,12′R)-6-chloro-7′-((9aS)-hexahydropyrazino[2,1-c][1,4]oxazin-8(1H)-ylmethyl)-7′,11′,12′-trimethyl-3,4-dihydro-2H,15′H-spiro[naphthalene-1,22′-[20]oxa[13]thia[1,14]diazatetracyclo [14.7.2.0~3,6~.0~19,24~]pentacosa[16,18,24]trien]-15′-one 13′,13′-dioxide]", "values": [
      {"measurement": "IC50", "setting": "[1]", "value": 0.109, "unit": "nM"},
      {"measurement": "IC50", "setting": "[2]; [3]", "value": 235, "unit": "nM"}
    ]},
    {"smiles": "C[C@@H]1[C@@H](C)CCC[C@](C)(CO)[C@@H]2CC[C@H]2CN2C[C@@]3(CCCc4cc(Cl)ccc43)COc3ccc(cc32)C(=O)NS1(=O)=O", "note": "[Example 100301, (1S,3′R,6′R,7′S,11′S,12′R)-6-chloro-7′-(hydroxymethyl)-7′,11′,12′-trimethyl-3,4-dihydro-2H,15′H-spiro[naphthalene-1,22′-[20]oxa[13]thia[1,14]diazatetracyclo [14.7.2.0~3,6~.0~19,24~]pentacosa[16,18,24]trien]-15′-one 13′,13′-dioxide]", "values": [
      {"measurement": "IC50", "setting": "[1]", "value": 1.31, "unit": "nM"},
      {"measurement": "IC50", "setting": "[2]; [3]", "value": 1930, "unit": "nM"}
    ]},
    {"smiles": "C[C@@H]1[C@@H](C)CCC[C@](C)(CN2CCOCC2)[C@@H]2CC[C@H]2CN2C[C@@]3(CCCc4cc(Cl)ccc43)COc3ccc(cc32)C(=O)NS1(=O)=O", "note": "[Example 100302, (1S,3′R,6′R,7′S,11′S,12′R)-6-chloro-7′,11′,12′-trimethyl-7′-(4-morpholinylmethyl)-3,4-dihydro-2H,15′H-spiro[naphthalene-1,22′-[20]oxa[13]thia[1,14]diazatetracyclo [14.7.2.0~3,6~.0~19,24~]pentacosa[16,18,24]trien]-15′-one 13′,13′-dioxide]", "values": [
      {"measurement": "IC50", "setting": "[1]", "value": 3.8, "unit": "nM"},
      {"measurement": "IC50", "setting": "[2]; [3]", "value": 4880, "unit": "nM"}
    ]},
    {"smiles": "C[C@@H]1[C@@H](C)CCC[C@@]2(C[C@H]2C(=O)N2CCN3CCOC[C@H]3C2)[C@@H]2CC[C@H]2CN2C[C@@]3(CCCc4cc(Cl)ccc43)COc3ccc(cc32)C(=O)NS1(=O)=O", "note": "[Example 100303, (1R,2R,3′R,6′R,11′S,12′R,22′S)-6″-chloro-2-((9aR)-hexahydropyrazino[2,1-c][1,4]oxazin-8(1H)-ylcarbonyl)-11′,12′-dimethyl-3″,4″-dihydro-2″H,15′H-dispiro[cyclopropane-1,7′-[20]oxa[13]thia[1,14]diazatetracyclo [14.7.2.0~3,6~.0~19,24~]pentacosa[16,18,24]triene-22′,1″-naphthalen]-15′-one 13′,13′-dioxide]", "values": [
      {"measurement": "IC50", "setting": "[1]", "value": 3.64, "unit": "nM"},
      {"measurement": "IC50", "setting": "[2]; [4]", "value": 7330, "unit": "nM"}
    ]},
    {"smiles": "C[C@@H]1[C@@H](C)CCC[C@@]2(C[C@H]2C(=O)N2CCN3CCOC[C@H]3C2)[C@@H]2CC[C@H]2CN2C[C@@]3(CCCc4cc(Cl)ccc43)COc3ccc(cc32)C(=O)NS1(=O)=O", "note": "[Example 100304, (1R,2R,3′R,6′R,11′S,12′R,22′S)-6″-chloro-2-((9aR)-hexahydropyrazino[2,1-c][1,4]oxazin-8(1H)-ylcarbonyl)-11′,12′-dimethyl-3″,4″-dihydro-2″H,15′H-dispiro[cyclopropane-1,7′-[20]oxa[13]thia[1,14]diazatetracyclo [14.7.2.0~3,6~.0~19,24~]pentacosa[16,18,24]triene-22′,1″-naphthalen]-15′-one 13′,13′-dioxide]", "values": [
      {"measurement": "IC50", "setting": "[1]", "value": 0.311, "unit": "nM"},
      {"measurement": "IC50", "setting": "[2]; [4]", "value": 464, "unit": "nM"}
    ]},
    {"smiles": "C[C@@H]1[C@@H](C)C/C=C/[C@@](O)(CC(=O)N2CCN3CCOC[C@@H]3C2)[C@@H]2CC[C@H]2CN2C[C@@]3(CCCc4cc(Cl)ccc43)COc3ccc(cc32)C(=O)NS1(=O)=O", "note": "[Example 100305, (1S,3′R,6′R,7′S,8′E,11′S,12′R)-6-chloro-7′-(2-((9aS)-hexahydropyrazino[2,1-c][1,4]oxazin-8(1H)-yl)-2-oxoethyl)-7′-hydroxy-11′,12′-dimethyl-3,4-dihydro-2H,15′H-spiro[naphthalene-1,22′-[20]oxa[13]thia[1,14]diazatetracyclo [14.7.2.0~3,6~.0~19,24~]pentacosa[8,16,18,24]tetraen]-15′-one 13′,13′-dioxide]", "values": [
      {"measurement": "IC50", "setting": "[1]", "value": 0.473, "unit": "nM"},
      {"measurement": "IC50", "setting": "[2]; [3]", "value": 1140, "unit": "nM"}
    ]},
    {"smiles": "CO[C@]1(CC(=O)O)/C=C/C[C@H](C)[C@@H](C)S(=O)(=O)NC(=O)c2ccc3c(c2)N(C[C@@H]2CC[C@H]21)C[C@@]1(CCCc2cc(Cl)ccc21)CO3", "note": "[Example 100306, ((1S,3′R,6′R,7′R,8′E,11′S,12′R)-6-chloro-7′-methoxy-11′,12′-dimethyl-13′,13′-dioxido-15′-oxo-3,4-dihydro-2H-spiro[naphthalene-1,22′-[20]oxa[13]thia[1,14]diazatetracyclo [14.7.2.0~3,6~.0~19,24~]pentacosa[8,16,18,24]tetraen]-7′-yl)acetic acid]", "values": [
      {"measurement": "IC50", "setting": "[1]", "value": 0.124, "unit": "nM"},
      {"measurement": "IC50", "setting": "[2]; [3]", "value": 278, "unit": "nM"}
    ]},
    {"smiles": "CO[C@@]1(CC(=O)O)/C=C/C[C@H](C)[C@@H](C)S(=O)(=O)NC(=O)c2ccc3c(c2)N(C[C@@H]2CC[C@H]21)C[C@@]1(CCCc2cc(Cl)ccc21)CO3", "note": "[Example 100307, ((1S,3′R,6′R,7′S,8′E,11′S,12′R)-6-chloro-7′-methoxy-11′,12′-dimethyl-13′,13′-dioxido-15′-oxo-3,4-dihydro-2H-spiro[naphthalene-1,22′-[20]oxa[13]thia[1,14]diazatetracyclo [14.7.2.0~3,6~.0~19,24~]pentacosa[8,16,18,24]tetraen]-7′-yl)acetic acid]", "values": [
      {"measurement": "IC50", "setting": "[1]", "value": 0.049, "unit": "nM"},
      {"measurement": "IC50", "setting": "[2]; [3]", "value": 1030, "unit": "nM"}
    ]}
  ]
}
